This note sets out measurements from ChEMBL document CHEMBL4823311, “Optimization of Naphthyridones into Selective TATA-Binding Protein Associated Factor 1 (TAF1) Bromodomain Inhibitors” (ACS Med Chem Lett, 2021).

The target of data set [1] is T1, ATPase family AAA domain-containing protein 2 (Homo sapiens) (UniProt Q6PL18).
T1 sequence (whole entry): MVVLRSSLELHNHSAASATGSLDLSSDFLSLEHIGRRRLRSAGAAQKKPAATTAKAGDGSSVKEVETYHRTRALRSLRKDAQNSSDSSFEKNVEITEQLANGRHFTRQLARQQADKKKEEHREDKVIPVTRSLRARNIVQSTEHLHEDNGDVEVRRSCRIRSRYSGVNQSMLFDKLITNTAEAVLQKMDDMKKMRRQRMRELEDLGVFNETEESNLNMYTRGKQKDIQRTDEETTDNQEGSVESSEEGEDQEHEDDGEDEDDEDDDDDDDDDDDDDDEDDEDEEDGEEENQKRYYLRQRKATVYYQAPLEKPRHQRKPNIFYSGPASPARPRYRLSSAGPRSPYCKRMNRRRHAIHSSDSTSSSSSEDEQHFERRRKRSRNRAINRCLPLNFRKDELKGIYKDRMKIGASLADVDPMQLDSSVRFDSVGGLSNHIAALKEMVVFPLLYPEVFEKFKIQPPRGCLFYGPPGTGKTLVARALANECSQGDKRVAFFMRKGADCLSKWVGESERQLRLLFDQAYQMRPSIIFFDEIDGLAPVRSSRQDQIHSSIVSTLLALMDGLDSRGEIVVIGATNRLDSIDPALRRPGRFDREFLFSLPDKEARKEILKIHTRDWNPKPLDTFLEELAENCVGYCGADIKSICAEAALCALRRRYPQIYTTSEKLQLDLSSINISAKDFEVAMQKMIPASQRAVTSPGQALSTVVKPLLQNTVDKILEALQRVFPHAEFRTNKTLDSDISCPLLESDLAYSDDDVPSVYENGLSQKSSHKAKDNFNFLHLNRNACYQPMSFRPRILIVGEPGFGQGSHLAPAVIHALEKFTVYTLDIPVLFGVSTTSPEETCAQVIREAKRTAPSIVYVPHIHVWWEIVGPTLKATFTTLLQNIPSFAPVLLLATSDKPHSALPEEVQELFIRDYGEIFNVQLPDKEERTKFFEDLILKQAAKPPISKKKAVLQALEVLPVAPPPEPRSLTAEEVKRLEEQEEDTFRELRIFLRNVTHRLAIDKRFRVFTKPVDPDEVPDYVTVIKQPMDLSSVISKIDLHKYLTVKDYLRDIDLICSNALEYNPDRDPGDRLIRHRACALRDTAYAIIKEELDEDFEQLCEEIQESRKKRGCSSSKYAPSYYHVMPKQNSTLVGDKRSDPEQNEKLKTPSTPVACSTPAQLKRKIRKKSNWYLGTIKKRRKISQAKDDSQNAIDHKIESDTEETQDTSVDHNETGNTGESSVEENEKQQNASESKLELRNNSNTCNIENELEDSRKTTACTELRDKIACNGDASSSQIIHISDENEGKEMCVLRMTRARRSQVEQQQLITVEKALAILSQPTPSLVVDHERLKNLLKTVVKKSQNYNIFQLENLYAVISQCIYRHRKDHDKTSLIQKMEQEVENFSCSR
Briefly: Inhibition of human partial length ATAD2 (Q981 to R1108 residues) expressed in bacterial expression system at 10 uM measured by BROMOscan assay.

Data set [2] has as its target T2, Bromodomain-containing protein 4 (Homo sapiens, UniProt O60885). Put plainly: Inhibition of human partial length BRD4 BD2 (K333 to E460 residues) expressed in bacterial expression system by BROMOscan assay.
Data set [3] can be described thus: Passive permeability of the compound across artificial membrane by AMP assay. Type of data set: ADME. Conditions: PAMPA; read-out: permeability.
Data set [4] deals with T3, Bromodomain-containing protein 9 (Homo sapiens, UniProt Q9H8M2).
T3 sequence (Q9H8M2 whole entry): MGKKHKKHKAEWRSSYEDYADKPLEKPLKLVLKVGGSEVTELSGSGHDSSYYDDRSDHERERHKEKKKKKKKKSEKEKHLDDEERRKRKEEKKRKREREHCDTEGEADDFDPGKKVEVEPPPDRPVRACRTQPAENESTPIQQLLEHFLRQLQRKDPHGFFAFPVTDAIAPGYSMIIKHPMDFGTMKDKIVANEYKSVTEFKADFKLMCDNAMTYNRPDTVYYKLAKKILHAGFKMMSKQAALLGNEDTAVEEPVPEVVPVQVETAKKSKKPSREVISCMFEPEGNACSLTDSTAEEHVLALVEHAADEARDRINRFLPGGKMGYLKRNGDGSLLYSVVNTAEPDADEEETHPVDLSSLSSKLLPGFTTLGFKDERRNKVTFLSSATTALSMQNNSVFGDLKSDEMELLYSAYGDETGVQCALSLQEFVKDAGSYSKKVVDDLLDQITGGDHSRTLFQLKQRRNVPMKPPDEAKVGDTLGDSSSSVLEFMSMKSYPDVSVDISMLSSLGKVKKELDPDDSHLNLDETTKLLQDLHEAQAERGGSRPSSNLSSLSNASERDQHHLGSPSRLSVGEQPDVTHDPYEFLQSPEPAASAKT
Briefly: Inhibition of human partial length BRD9 (R130 to V259 residues) expressed in bacterial expression system measured by BROMOscan assay.

The nature of data set [5]: Intrinsic clearance in human microsomes. The class given is ADME, Microsome.
The target of data set [6] is T2, Bromodomain-containing protein 4. Briefly: Inhibition of BRD4 BD1 (unknown origin) by TR-FRET assay.
Data set [7] has the same target. Briefly: Inhibition of BRD4 BD2 (unknown origin) measured by TR-FRET assay. On the technique in general: TR-FRET usually uses a lanthanide donor and a delayed reading to cut background.
For data set [8], the target named is T4, Transcription initiation factor TFIID subunit 1 (Homo sapiens, UniProt P21675). Put plainly: Inhibition of human partial length TAF1 bromodomain 2 (D1521 to D1656 residues) expressed in bacterial expression system by BROMOscan assay.
T4 sequence (P21675 whole entry, the tested form may be a part): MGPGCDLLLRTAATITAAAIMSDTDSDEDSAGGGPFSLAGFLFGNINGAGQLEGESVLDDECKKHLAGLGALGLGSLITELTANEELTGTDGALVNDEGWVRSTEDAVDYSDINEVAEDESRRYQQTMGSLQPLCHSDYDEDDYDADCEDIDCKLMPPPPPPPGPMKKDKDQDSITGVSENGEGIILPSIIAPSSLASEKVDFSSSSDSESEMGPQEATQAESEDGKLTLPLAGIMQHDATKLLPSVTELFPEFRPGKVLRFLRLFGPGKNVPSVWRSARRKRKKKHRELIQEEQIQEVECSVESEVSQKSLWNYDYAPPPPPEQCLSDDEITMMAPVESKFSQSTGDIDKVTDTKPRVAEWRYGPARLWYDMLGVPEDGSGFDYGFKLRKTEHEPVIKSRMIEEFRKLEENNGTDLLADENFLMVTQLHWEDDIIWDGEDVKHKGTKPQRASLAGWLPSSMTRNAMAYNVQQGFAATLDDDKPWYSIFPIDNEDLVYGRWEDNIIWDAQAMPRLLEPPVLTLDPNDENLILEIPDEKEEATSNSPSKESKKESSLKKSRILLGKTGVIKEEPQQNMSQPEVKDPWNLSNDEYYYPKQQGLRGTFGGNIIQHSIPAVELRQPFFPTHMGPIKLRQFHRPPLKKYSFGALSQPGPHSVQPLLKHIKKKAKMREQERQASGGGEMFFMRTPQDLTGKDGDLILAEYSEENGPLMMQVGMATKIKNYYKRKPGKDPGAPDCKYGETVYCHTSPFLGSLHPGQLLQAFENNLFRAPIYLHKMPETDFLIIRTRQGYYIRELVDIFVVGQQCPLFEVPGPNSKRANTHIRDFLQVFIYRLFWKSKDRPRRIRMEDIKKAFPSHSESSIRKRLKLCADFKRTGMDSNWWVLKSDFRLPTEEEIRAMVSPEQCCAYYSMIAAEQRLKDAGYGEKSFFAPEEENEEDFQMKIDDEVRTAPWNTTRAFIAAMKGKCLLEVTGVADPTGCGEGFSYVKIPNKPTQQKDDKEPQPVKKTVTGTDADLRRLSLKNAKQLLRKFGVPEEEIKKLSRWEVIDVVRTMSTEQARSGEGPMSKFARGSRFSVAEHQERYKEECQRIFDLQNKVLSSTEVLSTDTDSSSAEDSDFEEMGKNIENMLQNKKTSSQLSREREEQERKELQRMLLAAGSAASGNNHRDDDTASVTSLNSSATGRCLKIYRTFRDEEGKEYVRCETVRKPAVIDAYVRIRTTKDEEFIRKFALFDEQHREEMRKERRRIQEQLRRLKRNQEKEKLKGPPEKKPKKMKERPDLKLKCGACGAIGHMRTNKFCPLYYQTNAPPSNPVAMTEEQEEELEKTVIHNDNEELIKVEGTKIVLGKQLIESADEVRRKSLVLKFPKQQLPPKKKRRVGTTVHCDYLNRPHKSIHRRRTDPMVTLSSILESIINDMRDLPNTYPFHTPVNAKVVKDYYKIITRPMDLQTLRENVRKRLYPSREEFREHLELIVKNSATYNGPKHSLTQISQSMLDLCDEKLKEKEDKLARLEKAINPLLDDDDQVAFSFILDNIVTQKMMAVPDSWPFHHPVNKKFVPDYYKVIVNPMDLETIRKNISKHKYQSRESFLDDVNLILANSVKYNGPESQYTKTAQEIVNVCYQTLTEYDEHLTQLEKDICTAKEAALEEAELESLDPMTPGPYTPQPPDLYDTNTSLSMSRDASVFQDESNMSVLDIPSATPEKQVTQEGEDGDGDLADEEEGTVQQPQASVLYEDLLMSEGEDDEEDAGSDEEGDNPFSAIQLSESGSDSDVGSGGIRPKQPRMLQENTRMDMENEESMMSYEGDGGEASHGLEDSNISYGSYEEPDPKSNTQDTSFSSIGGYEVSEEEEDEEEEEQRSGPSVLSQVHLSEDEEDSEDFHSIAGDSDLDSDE
The target in data set [9] is Chromatin remodeling regulator CECR2 (Homo sapiens, UniProt Q9BXF3). Briefly: Inhibition of human partial length CECR2 (P423 to D543 residues) expressed in bacterial expression system by BROMOscan assay.
Sequence of Chromatin remodeling regulator CECR2 (Q9BXF3 whole entry, the tested form may be a part): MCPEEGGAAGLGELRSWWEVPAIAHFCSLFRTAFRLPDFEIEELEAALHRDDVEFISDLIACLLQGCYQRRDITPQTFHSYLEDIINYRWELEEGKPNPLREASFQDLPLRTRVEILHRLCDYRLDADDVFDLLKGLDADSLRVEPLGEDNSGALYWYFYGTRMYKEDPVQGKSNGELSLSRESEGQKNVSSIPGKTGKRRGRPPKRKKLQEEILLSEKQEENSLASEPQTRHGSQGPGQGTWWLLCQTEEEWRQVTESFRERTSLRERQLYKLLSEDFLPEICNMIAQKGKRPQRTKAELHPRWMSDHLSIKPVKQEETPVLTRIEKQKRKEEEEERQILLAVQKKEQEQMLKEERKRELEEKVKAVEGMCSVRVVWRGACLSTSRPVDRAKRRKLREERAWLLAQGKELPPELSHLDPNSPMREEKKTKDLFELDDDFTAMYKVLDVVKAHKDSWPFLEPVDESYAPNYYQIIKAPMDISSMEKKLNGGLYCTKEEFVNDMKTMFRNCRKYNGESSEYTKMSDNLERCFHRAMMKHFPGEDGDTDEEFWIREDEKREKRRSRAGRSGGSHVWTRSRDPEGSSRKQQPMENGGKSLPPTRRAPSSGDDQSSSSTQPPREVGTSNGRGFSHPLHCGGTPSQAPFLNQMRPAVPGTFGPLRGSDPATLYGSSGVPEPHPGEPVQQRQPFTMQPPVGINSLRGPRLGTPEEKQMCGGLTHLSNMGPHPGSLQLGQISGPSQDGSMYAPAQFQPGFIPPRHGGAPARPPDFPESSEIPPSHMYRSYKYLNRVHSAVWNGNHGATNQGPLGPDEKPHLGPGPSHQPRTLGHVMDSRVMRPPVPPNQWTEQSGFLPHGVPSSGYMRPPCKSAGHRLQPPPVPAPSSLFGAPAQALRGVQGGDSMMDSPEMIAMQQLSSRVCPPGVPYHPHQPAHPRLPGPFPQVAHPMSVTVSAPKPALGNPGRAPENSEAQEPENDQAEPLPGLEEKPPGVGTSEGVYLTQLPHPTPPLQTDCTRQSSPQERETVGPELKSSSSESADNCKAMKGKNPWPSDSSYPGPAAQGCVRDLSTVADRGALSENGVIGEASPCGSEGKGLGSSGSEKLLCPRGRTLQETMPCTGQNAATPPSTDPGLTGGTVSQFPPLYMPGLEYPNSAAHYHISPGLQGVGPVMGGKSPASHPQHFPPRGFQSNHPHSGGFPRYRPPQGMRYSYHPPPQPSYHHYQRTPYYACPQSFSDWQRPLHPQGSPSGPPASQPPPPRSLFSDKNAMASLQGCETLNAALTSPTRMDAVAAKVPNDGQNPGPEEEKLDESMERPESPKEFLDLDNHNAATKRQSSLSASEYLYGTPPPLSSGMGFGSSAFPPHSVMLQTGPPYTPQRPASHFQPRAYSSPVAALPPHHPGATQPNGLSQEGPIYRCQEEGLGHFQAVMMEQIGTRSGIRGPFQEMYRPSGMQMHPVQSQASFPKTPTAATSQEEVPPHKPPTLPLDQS
Data set [10] in a line: Solubility of the compound by CAD method. The class given is physicochemical.
Data set [11] is described as follows: Lipophilicity, logD of the compound at pH 7.4 by chromatographic method. The class given is physicochemical. Conditions: buffer.
Data set [12] deals with T4, Transcription initiation factor TFIID subunit 1. Put plainly: Inhibition of TAF1 bromodomain 2 (unknown origin) by TR-FRET assay.
Data set [13] shares this target. Put plainly: Displacement of Halo-tagged histone H4 from NanoLuc-tagged TAF1 bromodomain 2 (unknown origin) expressed in HEK293 cells measured after 4 to 6 hrs by NanoBRET assay. The class given is cell-based.
For data set [14], the target named is T2, Bromodomain-containing protein 4. Briefly: Inhibition of human partial length BRD4 BD1 (N44 to E168 residues) expressed in bacterial expression system by BROMOscan assay.

Converted amounts (≈) assume the structure as drawn.

The inhibition is the drop in the measured response relative to a control, in per cent. A high value points to a response far below the control. What is called Ki is a dissociation constant, usually derived from enzyme kinetics or from competition with a known ligand. A high value points to lower affinity. One may read the CLint scaled as a measure of how fast metabolising enzymes remove a compound, apart from limits set by blood flow. In general, IC50 refers to the concentration needed to halve the response being measured. Low readings indicate greater potency in that assay, high ones weaker potency in that assay. Usually solubility stands for the dissolved amount per volume that the medium holds. A low value points to a poorly soluble substance. In general, chromatographic logD refers to lipophilicity estimated from chromatographic retention. In data set [1], `Cc1cc2c(C3=CCOCC3)cnc(NC3CCN(C(=O)C(F)(F)CN)CC3)c2[nH]c1=O` yielded an inhibition of 24%. The Ki in data set [2] was 794 nM; in data set [4], 39.8 nM; in [8], 0.794 nM; in data set [9] it was 1000 nM; in [14], above 5010 nM. In addition, the Papp in [3] came out at 6.2 ×10⁻⁶ cm/s. In [5], the CLint scaled stood at 20.4 mL/min/kg. In addition, the IC50 was above 20000 nM in data set [6], 5010 nM in data set [7], 39.8 nM in data set [12] and above 10000 nM in data set [13]. In data set [10], this compound showed a solubility of 24 µg/mL (≈ 53.6 µM). The same compound had a chromatographic logD in data set [11] of 2.7.
